This is an account of results in patent publication US12358904B2, “Inhibitors of TYK2” (Atomwise Inc., priority 2023, dated 2025).

The target in assay [1] is T1, TYK2-JH2 (Homo sapiens, UniProt P29597).
T1 construct: TYK JH2 enzyme mix (ChemPartnec CP20210818A-BV); purchased ChemPartner CP20210818A-BV
In words: TYK2-JH2 HTRF binding assay (ligand efficiency). The settings on record: calculated from IC50 of the TYK-JH2 binding assay (Equation 1). The procedure, abridged:
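His-tagged TYK2 JH2 (0.5 nM) preincubated 10 min at RT with compound (0.1–0.000005 μM) in 20 mM HEPES pH 7.5, 10 mM MgCl2, 0.01% Triton X-100, 1 mM DTT; then 35 nM tracer plus anti-6HIS Tb cryptate, 60 min RT. TR-FRET read (Ex340/Em495/520); IC50 converted to ligand efficiency.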

For assay [2], the system named is IL-12/pSTAT4. In words: IL-12 induced pSTAT4 assay in NK-92 cells. Format: cell-based. Conditions: Homo sapiens, NK92, IL-12 stimulation, read-out: Cellular potency (IL-12/pSTAT4). In outline: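 Overnight-starved NK-92 cells (20K/well) pre-incubated with compounds (1000 to 0.05 nM final) 30 min at 37 °C, then stimulated with IL-12 (10 ng/ml) for 30 min at 37 °C. Lysates assayed for pSTAT4 (Tyr693) by MSD electrochemiluminescence.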

The subject of assay [3] is IL-6/pSTAT3. In words: IL-6 induced pSTAT3 assay in TF-1 cells. Format: cell-based. Conditions: Homo sapiens, read-out: Cellular selectivity (IL-6/pSTAT3). As to the method: The following example describes the IL-6 induced pSTAT3 assay used to determine the cellular selectivity (IL-6/pSTAT3) of the TYK2 inhibitors.
TF-1 (ATCC®, CRL-2003™) cells were cultured in RPMI 1640 Medium, with GlutaMAX™ Supplement, HEPES for Cell Culture (Life Technologies, 72400047), 10% Fetal Bovine Serum (Life Technologies, 26400044), 2 ng/mL human recombinant GM-CSF (Life Technologies, PHC2013), 1 mM Sodium pyruvate (Life Technologies, 11360039), 1% MEM NEAA (Life Technologies, 11140-035), 1% Penicillin/Streptomycin (Life Technologies, 15140-122).
TF-1 (70×10^6) cells were starved overnight in T01 50 flasks (Opti-MEM™ I Reduced Serum Medium, no phenol red (Life Technologies, 11058-021), 1 mM Na pyruvate (Life Technologies, 11360039), 1% MEM NEAA (Life Technologies, 11140-035), and 1% Penicillin/Streptomycin (Life Technologies, 15140-122)) then seeded into 96-well TPP plates (150 000 cell/well) and incubated with test compounds (Final Concentration [nM] 10000-0.05) for 30 minutes at 37° C. […] Stimulation was terminated by addition of lysis buffer (MSD K150SVD) and pSTAT3 detection was measured with Phospho-STAT3 (Tyr705) Kit MSD K150SVD)) according to manufacturer's instruction. Briefly, cell lysates were added to pre-blocked plates, sealed, and shake for 1 hour at room temperature. Plates were then washed and incubated with detection antibody for 1 hour at room temperature. After washing, Read Buffer was added, and plates were read on MSD instrument (Model 1300 MSD Quickplex SQ 120).

In assay [4] the test system is GM-CSF/pSTAT5. In words: GM-CSF induced pSTAT5 assay in CellSensor irf1-bla TF-1 cells. Format: cell-based. Conditions: Homo sapiens, GM-CSF 1 ng/mL, read-out: Cellular selectivity (GM-CSF induced pSTAT5). As for the experimental part:
The CellSensor irf1-bla TF-1 cell line (LifeTechnologies, K1657) was cultured in RPMI 1640 Medium (Invitrogen 72400-047), 10% Fetal Bovine Serum (Invitrogen, 26400044), 1 mM Sodium pyruvate (Life Technologies, 11360039), 1% MEM NEAA (Life Technologies, 11140-035), 2 ng/ml of human recombinant GM-CSF (Fisher, PHC2015), 1% Penicillin/Streptomycin (Life Technologies, 15140-122) and 5 μg/ml of Blasticidin (ThermoFisher, A1113903).
The cell line was seeded in a T75 flask at 13×10^6 cells/50 mL in starvation medium (Opti-MEM™ I Reduced Serum Medium, no phenol red (Life Technologies, 11058-021), 1 mM Na pyruvate (Life Technologies, 11360039), 1% MEM NEAA (Life Technologies, 11140-035), and 1% Penicillin/Streptomycin (Life Technologies, 15140-122)) for 16 hours at 37° C. under 5% CO2 the day before the assay.
For the assay, CellSensor irf1-bla TF-1 cells were seeded at 30 000 cells/32 μL (starvation medium)/well in a 384-well plate.
Compounds were added on the cells in 4 μL (starvation medium)/well at 10× the final concentration. They were incubated for 30 minutes at 37° C.
Human recombinant carrier-free GM-CSF (ThermoFisher, ref PHC2015) was added to the wells in 4 μL (starvation medium)/well at 10×. The final concentration was 1 ng/mL. Control wells without GM-CSF treatment were added. Plates were incubated for 5 hours at 37° C.
6× LiveBlazer-FRET substrate (Invitrogen, K1085) was added to the wells at 8 μL/well. The substrate was prepared shortly before use by mixing 6 μL of solution A and 60 μL of solution B to 934 μL of solution C. Plates were incubated for 2.5 hours at room temperature in the dark. The plates were read on an Envision (Perkin Elmer) with an excitation at a wavelength of 409 nm and two wavelengths for the emission 520 nm and 450 nm. The ratio between the […] emission was used to calculate the IC50s.
The IC50 for the inhibition of pSTAT5 was calculated with the Xlfit software using the 4 Parameter Logistic Model or Sigmoidal Dose-Response Model (model 205).

T1 sequence (P29597 589-875 limits assumed): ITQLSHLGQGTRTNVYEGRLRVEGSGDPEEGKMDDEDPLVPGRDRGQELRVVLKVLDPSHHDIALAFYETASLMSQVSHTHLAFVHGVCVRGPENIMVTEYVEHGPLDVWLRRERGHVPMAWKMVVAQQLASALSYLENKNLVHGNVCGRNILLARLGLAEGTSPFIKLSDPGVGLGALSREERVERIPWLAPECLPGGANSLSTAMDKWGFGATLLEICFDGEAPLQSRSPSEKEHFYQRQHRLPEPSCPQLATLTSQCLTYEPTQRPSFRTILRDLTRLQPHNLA

On to `Cc1cncc(Nc2cc(Nc3ccccc3C(N)=O)ncn2)n1` [Compound 49, 2-(6-(6-methylpyrazin-2-ylamino)pyrimidin-4-ylamino)benzamide], for which the “Ligand Efficiency” value in assay [1] is on record as “††† (†††: >0.39)”. Besides, the IC50 was 0.1 to 1 µM in assay [2], below 4 µM in assay [3] and above 10 µM in assay [4].
Taken in the same sequence, the figures for `CS(=O)(=O)c1ccccc1Nc1cc(Nc2ccc(CNC3CCOC3)cn2)ncn1` (stereo not drawn) [Compound 28, N^4-(2-(methylsulfonyl)phenyl)-N^6-(5-((tetrahydrofuran-3-ylamino)methyl)110yridine-2-yl)pyrimidine-4,6-diamine] were “†† (††: 0.37-0.39)”, below 0.1 µM, above 10 µM and above 10 µM.
Regarding `CC(NC1CC(F)(F)C1)c1ccc(Nc2cc(Nc3ncccc3S(C)(=O)=O)ncn2)nc1` (stereo not drawn) [Compound 35, N^4-(5-(1-(3,3-difluorocyclobutylamino)ethyl)122yridine-2-yl)-N^6-(3-(methylsulfonyl)122yridine-2-yl)pyrimidine-4,6-diamine], the “Ligand Efficiency” value in assay [1] is recorded as “††† (†††: >0.39)”. Besides, the figures for the IC50 in assay [2], in assay [3] and in assay [4] were below 0.1 µM, above 10 µM and above 10 µM, respectively.
Consider `CC1(Nc2ccc(Nc3cc(Nc4ncccc4S(C)(=O)=O)ncn3)nc2)COC1` [Compound 21, N^4-(5-((3-methyloxetan-3-yl)amino)102yridine-2-yl)-N^6-(3-(methylsulfonyl)102yridine-2-yl)pyrimidine-4,6-diamine], for which, in assay [1], the “Ligand Efficiency” value is recorded as “††† (†††: >0.39)”. Besides, the IC50 in assay [2] was below 0.1 µM; in assay [3], 4 to 10 µM; in assay [4], above 10 µM.
Regarding `CC(NC1CCOC1)c1ccc(Nc2cc(Nc3ccccc3S(C)(=O)=O)ncn2)nc1` (stereo not drawn) [Compound 26, N^4-(2-(methylsulfonyl)phenyl)-N^6-(5-(1-(tetrahydrofuran-3-ylamino)ethyl)106yridine-2-yl)pyrimidine-4,6-diamine], in assay [1], the “Ligand Efficiency” value is given as “†† (††: 0.37-0.39)”. Besides, the IC50 was below 0.1 µM in assay [2], above 10 µM in assay [3] and above 10 µM in assay [4].
Turning to `CS(=O)(=O)c1cccnc1Nc1cc(Nc2cccc(C(F)(F)F)n2)ncn1` [Compound 19, N^4-(3-(methylsulfonyl)100yridine-2-yl)-N^6-(6-(trifluoromethyl) 100yridine-2-yl)pyrimidine-4,6-diamine], the “Ligand Efficiency” value in assay [1] is recorded as “††† (†††: >0.39)”. Also, the IC50 in assay [2] is below 0.1 µM; in assay [3] it was above 10 µM; in assay [4] it was above 10 µM.
For `Cc1nc(Nc2cc(Nc3ncccc3S(C)(=O)=O)ncn2)ccc1NC1(C)COC1` [Compound 6, N^4-(6-methyl-5-((3-methyloxetan-3-yl)amino)82yridine-2-yl)-N^6-(3-(methylsulfonyl)82yridine-2-yl)pyrimidine-4,6-diamine], the “Ligand Efficiency” value in assay [1] is recorded as “††† (†††: >0.39)”. For the same molecule, the values for the IC50 in assay [2], in assay [3] and in assay [4] were below 0.1 µM, 4 to 10 µM and above 10 µM, respectively.
In the same order, the values of `CC(C)[C@@H](c1ccc(Nc2cc(Nc3ncccc3S(C)(=O)=O)ncn2)nc1)N1CC2(COC2)C1` [Compound 13, (S)—N^4-(5-(2-methyl-1-(2-oxa-6-azaspiro[3.3]heptan-6-yl)propyl)pyridine-2-yl)-N^6-(3-(methylsulfonyl)93yridine-2-yl)pyrimidine-4,6-diamine] are “†† (††: 0.37-0.39)”, below 0.1 µM, 4 to 10 µM and above 10 µM.
With `Cc1nc(Nc2cc(Nc3ncccc3S(C)(=O)=O)ncn2)ccc1[C@H](C)N1CC2(COC2)C1` [Compound 12, N^4-(5-(1-(2-oxa-6-azaspiro[3.3]heptan-6-yl)ethyl)-6-methylpyridin-2-yl)-N^6-(3-(methylsulfonyl)92yridine-2-yl)pyrimidine-4,6-diamine], the “Ligand Efficiency” value in assay [1] is “††† (†††: >0.39)”. Besides, the values for the IC50 in assay [2], in assay [3] and in assay [4] were below 0.1 µM, below 4 µM and below 4 µM, respectively.
